Results on 23 molecules are retold here after patent US11534441B2, “MAP4K1 inhibitors” (Blueprint Medicines Corporation, priority 2020, dated 2022).

The target of this experiment is MAP4K1 (HPK1) (Homo sapiens (Human), UniProt Q92918). Kind of experiment: MAP4K1 (HPK1) biochemical enzymatic activity, electrophoretic mobility shift (EZReader 2), ATP at APPKM (26 μM). The source says:
MAP4K1 (HPK1) and relevant off-target enzymatic activity was monitored using the Perkin Elmer electrophoretic mobility shift technology platform—the EZReader 2. […] Within the linear, steady-state phase of the kinase enzymatic reaction, the mixed pool of phosphorylated (product) and non-phosphorylated (substrate) peptides was passed through the microfluidic system of the PerkinElmer EZ Reader 2, under an applied electric potential difference. The presence of the phosphate group on the product peptide provided a difference in mass and charge between that of the substrate peptide, resulting in a separation of the substrate and product pools in the sample (Perrin et al. 2010). As the product and substrate peptide mixture passes the lasers within the instrument, these pools are detected (λex=488 nm, λent=568 nm) and resolved as separate peaks. The ratio between these peaks reflects the activity of the compound at that concentration, in that well, under those conditions.
Inhibitors were dissolved in 100% DMSO at a stock concentration of 10 mM. A 100×, 10-point, 4-fold serial dilution of each inhibitor was created in 100% DMSO either manually or on a Hamilton STAR liquid handler, starting at a relevant concentration, usually 1 mM. A volume of 0.130 μL of each concentration was transferred to the relevant wells of a 384-well plate (Greiner 781 201) in duplicate using a TTPLabtech Mosquito nano-litre dispenser. Using a Multidrop Combi, the remaining constituents of the kinase reaction were added to the 130 nL of dosed compound as follows (see table below for final reaction details):
Enzyme activity assays at the ^APPKM for ATP or 1 mM ATP: In each well of a 384-well plate, 0.1-15 nM of untreated enzyme was incubated in a total of 13 μL of buffer (100 mM HEPES pH 7.5, 0.015% Brij 35, 10 mM MgCl2, 1 mM DTT) with 1.5 μM fluorescent peptid and 20-1000 μM ATP, at 25° C., for 60-180 minutes in the presence or absence of a dosed concentration series of compound (1% DMSO final concentration). The kinase reactions were stopped by the addition of 70 μl of Stop buffer (100 mM HEPES pH 7.5, 0.015% Brij 35, 35 mM EDTA and 0.2% of Coating Reagent 3 (Caliper Lifesciences)). The plates were read on a Caliper EZReader 2 as described above.
(In general: A gel shift assay detects complexes by their altered migration in electrophoresis.)

Sequence of MAP4K1 (HPK1) (Q92918 whole entry): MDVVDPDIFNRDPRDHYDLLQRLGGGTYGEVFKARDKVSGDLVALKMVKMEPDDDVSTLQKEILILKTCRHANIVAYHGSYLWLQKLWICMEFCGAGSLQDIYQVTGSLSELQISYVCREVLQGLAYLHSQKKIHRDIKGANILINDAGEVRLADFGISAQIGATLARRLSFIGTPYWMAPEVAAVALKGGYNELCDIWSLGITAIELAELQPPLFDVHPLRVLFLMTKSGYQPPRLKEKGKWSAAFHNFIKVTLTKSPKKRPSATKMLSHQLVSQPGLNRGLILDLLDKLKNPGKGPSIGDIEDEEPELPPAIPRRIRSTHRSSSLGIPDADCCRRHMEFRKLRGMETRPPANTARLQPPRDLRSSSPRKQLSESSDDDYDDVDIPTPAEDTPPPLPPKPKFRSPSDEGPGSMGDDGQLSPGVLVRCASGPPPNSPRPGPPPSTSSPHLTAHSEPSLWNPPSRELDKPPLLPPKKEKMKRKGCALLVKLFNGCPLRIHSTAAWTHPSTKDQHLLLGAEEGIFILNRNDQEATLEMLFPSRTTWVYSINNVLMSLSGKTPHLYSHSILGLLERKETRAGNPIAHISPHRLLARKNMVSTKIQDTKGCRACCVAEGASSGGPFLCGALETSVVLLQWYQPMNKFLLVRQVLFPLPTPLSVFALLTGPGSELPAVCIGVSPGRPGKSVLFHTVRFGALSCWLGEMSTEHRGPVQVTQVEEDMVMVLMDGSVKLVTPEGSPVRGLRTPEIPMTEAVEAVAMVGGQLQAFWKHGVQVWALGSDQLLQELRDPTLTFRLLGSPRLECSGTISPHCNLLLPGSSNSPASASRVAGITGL

The term IC50 denotes the concentration that gives 50% inhibition. Consider `C[C@@H]1OC(=O)c2ccc(Nc3cc4c([C@@](C)(N)C5CC5)cnc(O[C@H]5C[C@H](O)C5)c4cn3)nc2[C@H]1C` (relative stereo) [Compound 193, (7S,8R)-2-((5-((R)-1-Amino-1-cyclopropylethyl)-8-((trans)-3-hydroxycyclobutoxy)-2,7-naphthyridin-3-yl)amino)-7,8-dimethyl-7,8-dihydro-5H-pyrano[4,3-b]pyridin-5-one and (7S,8R)-2-((5-((S)-1-amino-1-cyclopropylethyl)-8-((trans)-3-hydroxycyclobutoxy)-2,7-naphthyridin-3-yl)amino)-7,8-dimethyl-7,8-dihydro-5H-pyrano[4,3-b]pyridin-5-one], for which the IC50 runs as follows: (class designation) under 0.3 nM; (numeric value) 0.1 nM.
For `CC[C@H](F)c1nc(Nc2cc3c(C(C)(C)N)cnc(OC)c3cn2)cnc1C#N` (single isomer, unassigned) [Compound 30] the same measures were 1.1 to 10 nM and 3.57 nM.
For `CC[C@@H](F)c1nc(Nc2cc3c(C(C)(C)N)cnc(OC)c3cn2)cnc1C#N` (single isomer, unassigned) [Compound 31] the same measures were 1.1 to 10 nM and 5.88 nM.
For `CC[C@](C)(N)c1cnc(OC)c2cnc(Nc3ccc4c(n3)CC(C)(C)OC4=O)cc12` (single isomer, unassigned) [Compound 62] the same measures were 0.31 to 1 nM and 0.55 nM.
Turning to `C[C@](N)(c1cnc(OC2CC2)c2cnc(Nc3ccc4c(n3)CCOC4=O)cc12)C1CC1` (single isomer, unassigned) [Compound 108], for the setting “numeric value”, the IC50 was found to be 0.98 nM.
`C[C@@H]1OC(=O)c2ccc(Nc3cc4c(C(C)(N)CO)cnc(OC5CC5)c4cn3)nc2[C@H]1C` (single isomer, unassigned) [Compound 139, (7S,8R)-2-((5-((R)-2-Amino-1-hydroxypropan-2-yl)-8-cyclopropoxy-2,7-naphthyridin-3-yl)amino)-7,8-dimethyl-7,8-dihydro-5H-pyrano[4,3-b]pyridin-5-one or (7S,8R)-2-((5-((S)-2-amino-1-hydroxypropan-2-yl)-8-cyclopropoxy-2,7-naphthyridin-3-yl)amino)-7,8-dimethyl-7,8-dihydro-5H-pyrano[4,3-b]pyridin-5-one]: the IC50 by setting is: (class designation) 1.1 to 10 nM; (numeric value) 2.25 nM.
As to `C[C@@H]1OC(=O)c2ccc(Nc3cc4c([C@](C)(N)CO)cnc(OC5CC5)c4cn3)nc2[C@H]1C` (single isomer, unassigned) [Compound 140, (7S,8R)-2-((5-((R)-2-Amino-1-hydroxypropan-2-yl)-8-cyclopropoxy-2,7-naphthyridin-3-yl)amino)-7,8-dimethyl-7,8-dihydro-5H-pyrano[4,3-b]pyridin-5-one or (7S,8R)-2-((5-((S)-2-amino-1-hydroxypropan-2-yl)-8-cyclopropoxy-2,7-naphthyridin-3-yl)amino)-7,8-dimethyl-7,8-dihydro-5H-pyrano[4,3-b]pyridin-5-one], under “class designation”, the half-maximal inhibitory concentration (IC50) is over 10 nM.
Consider `CC1(C)Cc2nc(Nc3cc4c([C@](C)(N)C5CC5)cnc(OC5CC5)c4cn3)ccc2C(=O)N1` (single isomer, unassigned) [Compound 148], for which the half-inhibitory concentration (IC50) (numeric value) is 0.11 nM.
On the same count and under the same terms, as for `CC1(C)Cc2nc(Nc3cc4c([C@@](C)(N)C5CC5)cnc(OC5CC5)c4cn3)ccc2C(=O)O1` (single isomer, unassigned) [Compound 153], the figure is 2.61 nM.
`C[C@H](Oc1ncc(C(C)(C)N)c2cc(Nc3ccc4c(n3)CC(C)(C)OC4=O)ncc12)C(F)F` (single isomer, unassigned) [Compound 164]: the concentration for half-maximal inhibition (IC50) by setting is: (class designation) 1.1 to 10 nM; (numeric value) 7.35 nM.
With `C[C@@H](Oc1ncc(C(C)(C)N)c2cc(Nc3ccc4c(n3)CC(C)(C)OC4=O)ncc12)C(F)F` (single isomer, unassigned) [Compound 165], the 50% inhibitory concentration (IC50) was 1.1 to 10 nM (class designation) and 1.26 nM (numeric value).
For `CC[C@](C)(N)c1cnc(OCC(F)(F)F)c2cnc(Nc3ccc4c(n3)C(C)(C)OC4=O)cc12` (single isomer, unassigned) [Compound 173] the same measures were 1.1 to 10 nM and 1.72 nM.
As for `CC[C@@](C)(N)c1cnc(OCC(F)(F)F)c2cnc(Nc3ccc4c(n3)C(C)(C)OC4=O)cc12` (single isomer, unassigned) [Compound 175], the IC50 was over 10 nM (class designation) and 35.1 nM (numeric value).
For `C[C@@H](Oc1ncc(C(C)(C)N)c2cc(Nc3ccc4c(n3)CC(C)(C)OC4=O)ncc12)C(F)(F)F` (single isomer, unassigned) [Compound 179] the same measures were 1.1 to 10 nM and 2.12 nM.
For `C[C@H](Oc1ncc(C(C)(C)N)c2cc(Nc3ccc4c(n3)CC(C)(C)OC4=O)ncc12)C(F)(F)F` (single isomer, unassigned) [Compound 180] the same measures were over 10 nM and 15.4 nM.
As to `CC[C@@H](N)c1ccc(OC)c2cnc(Nc3ccc4c(n3)C3(CC3)C(C)(C)OC4=O)cc12` (single isomer, unassigned) [Compound 207, (S)-2′-((5-(1-Aminopropyl)-8-methoxyisoquinolin-3-yl)amino)-7′,7′-dimethyl-5′H,7′H-spiro[cyclopropane-1,8′-pyrano[4,3-b]pyridin]-5′-one or (R)-2′-((5-(1-aminopropyl)-8-methoxyisoquinolin-3-yl)amino)-7′,7′-dimethyl-5′H,7′H-spiro[cyclopropane-1,8′-pyrano[4,3-b]pyridin]-5′-one], the IC50 runs as follows: (class designation) under 0.3 nM; (numeric value) 0.22 nM.
For `COc1ncc([C@H](C)N)c2cc(Nc3ccnc(C(C)(C)F)n3)ncc12` (stereo in doubt) [Compound 1, 5-(1-Aminoethyl)-N-(2-(2-fluoropropan-2-yl)pyrimidin-4-yl)-8-methoxy-2,7-naphthyridin-3-amine] the same measures were over 10 nM and 21.4 nM.
For `COc1ncc(C(C)(C)N)c2cc(Nc3ccnc(OC(C)C)n3)ncc12` [Compound 4] the same measures were 0.31 to 1 nM and 0.42 nM.
For `CNc1ncc(C(C)(C)N)c2cc(Nc3ccnc(C(C)(C)F)n3)ncc12` [Compound 6, 4-(2-Aminopropan-2-yl)-N6-(2-(2-fluoropropan-2-yl)pyrimidin-4-yl)-N1-methyl-2,7-naphthyridine-1,6-diamine] the same measures were 1.1 to 10 nM and 3.31 nM.
As to `CNc1ncc(C(C)(C)N)c2cc(Nc3cnc(C#N)c(C(C)C)n3)ncc12` [Compound 8, 5-((5-(2-Aminopropan-2-yl)-8-(methylamino)-2,7-naphthyridin-3-yl)amino)-3-isopropylpyrazine-2-carbonitrile], the half-maximal inhibitory concentration (IC50) by setting is: (class designation) over 10 nM; (numeric value) 11.1 nM.
As for `COc1ncc(C(C)(C)N)c2cc(Nc3cnc(C#N)c(C(C)C)n3)ncc12` [Compound 10], the half-maximal inhibitory concentration (IC50) was 1.1 to 10 nM (class designation) and 2.73 nM (numeric value).
For `CCOc1ncc(C(C)(C)N)c2cc(Nc3ccnc(C(C)(C)F)n3)ncc12` [Compound 16] the same measures were 1.1 to 10 nM and 2.5 nM.
`CNC(C)(C)c1cnc(OC)c2cnc(Nc3ccnc(C(C)(C)F)n3)cc12` [Compound 17, N-(2-(2-Fluoropropan-2-yl)pyrimidin-4-yl)-8-methoxy-5-(2-(methylamino)propan-2-yl)-2,7-naphthyridin-3-amine]: the IC50 (class designation) was 1.1 to 10 nM and the half-inhibitory concentration (IC50) (numeric value) was 4.02 nM.
